The subject of the test is caries. In words: 6-month comparison of silver-diamine-fluoride (SDF) and fluoride varnish in school aged children. Format: in vivo. As for the experimental part:
A fluoride composition was used in the study.
The compositions were applied once at the time of the initial exam using a tiny brush to any decayed area for 3 min, then the child rinsed.

[1] abbreviates: after 6 months, applied once to decayed area for 3 min.

“And” between values parts separate entries of the source, which are not always exact repeats. Identical values can stand only once.

Take silver diamine fluoride [SDF]: under “[1/(Varnish % − SDF %)], 6 months”, the “SDF Number Needed To Treat, Active Caries” value was 1.2. For the same substance, for the setting “[(Varnish % − SDF %)/Varnish %], 6 months”, the “SDF Prevented Fraction, Active Caries” value came out at 82.7. Besides, the “reduction in active caries compared to fluoride varnish” value (after 6 months) is given as “about 80%”. Moreover, under setting [1], the “Active Caries, # of School Children, Frequency” value amounted to 20; the “Active Caries, # of School Children, Percent” value is 16% and 16.8%; the “Active and Arrested Caries in same child, # of School Children, Frequency” value is 69; the “Active and Arrested Caries in same child, # of School Children, Percent” value is on record as 58.0%. Under setting [1], the “Arrested Caries, # of School Children, Frequency” value was found to be 27; the “Arrested Caries, # of School Children, Percent” value was found to be 22.7%; the “Dental Fillings, # of School Children, Frequency” value was determined as 3; the “Dental Fillings, # of School Children, Percent” value stood at 2.5%.

(Values after patent publication US20100247456A1, “METHODS AND COMPOSITIONS FOR PREVENTING CARIES” (priority 2009, published 2010).)
